Reference: patent publication US20200236940A1, “2-(HET)ARYL-SUBSTITUTED FUSED HETEROCYCLE DERIVATIVES AS PESTICIDES” (Bayer Aktiengesellschaft, priority 2017, published 2020)

What was measured:
Assay type in all cases: in vivo
Phaedon cochleariae = Phaedon cochleariae spray test, Chinese cabbage leaf discs; conditions: foliar, 168 h, application rate 100 g/ha, after 7 days, larvae, read-out: efficacy
Experimental: Phaedon cochleariae—Spray Test
To produce a suitable active ingredient formulation, 1 part by weight of active ingredient is dissolved with the specified parts by weight of solvent and made up to the desired concentration with water containing an emulsifier concentration of 1000 ppm. To produce further test concentrations, the formulation is diluted with emulsifier-containing water.
After 7 days, the efficacy in % is determined. 100% means that all the beetle larvae have been killed; 0% means that no beetle larvae have been killed.

Myzus persicae [1] = assay: Myzus persicae oral test; conditions: 120 h, application rate 4 ppm, after 5 days, read-out: efficacy
Experimental: Myzus persicae—Oral Test Solvent: 100 parts by weight of acetone To produce a suitable active ingredient formulation, 1 part by weight of active ingredient is dissolved with the stated parts by weight of solvent and made up to the desired concentration with water. 50 μl of the active ingredient formulation are transferred into microtitre plates and made up to a final volume of 200 μl with 150 μl of IPL41 insect medium (33%+15% sugar). Subsequently, the plates are sealed with parafilm, which a mixed population of green peach aphids (Myzus persicae) within a second microtitre plate is able to puncture and imbibe the solution. After 5 days, the efficacy in % is determined. 100% means that all the aphids have been killed; 0% means that no aphids have been killed.

Myzus persicae [2] = assay: Myzus persicae spray test (MYZUPE), Chinese cabbage leaf discs; conditions: foliar, 120 h; for pest or weed control at 20 g/ha: application rate 20 g/ha; for pest or weed control at 20 g/ha / pest or weed control at 100 g/ha: after 5 days, read-out: efficacy; for pest or weed control at 100 g/ha: application rate 100 g/ha
Experimental: Myzus persicae—Spray Test [table] To produce a suitable active ingredient formulation, 1 part by weight of active ingredient is dissolved with the specified parts by weight of solvent and made up to the desired concentration with water containing an emulsifier concentration of 1000 ppm. To produce further test concentrations, the formulation is diluted with emulsifier-containing water. Discs of Chinese cabbage leaves (Brassica pekinensis) infested by all stages of the green peach aphid (Myzus persicae) are sprayed with an active ingredient formulation of the desired concentration. After 5 days, the efficacy in % is determined. 100% means that all the aphids have been killed; 0% means that no aphids have been killed. Myzus persicae—Spray Test (MYZUPE) [table] To produce a suitable active ingredient formulation, 1 part by weight of active ingredient is dissolved with the specified parts by weight of solvent and made up to the desired concentration with water containing an emulsifier concentration of 1000 ppm. To produce further test concentrations, the formulation is diluted with emulsifier-containing water. Discs of Chinese cabbage leaves (Brassica pekinensis) infested by all stages of the green peach aphid (Myzus persicae) are sprayed with an active ingredient formulation of the desired concentration. After the desired period of time, the efficacy in % is determined. 100% means that all the aphids have been killed; 0% means that no aphids have been killed.

Spodoptera frugiperda = Spodoptera frugiperda spray test, maize leaf discs; conditions: for Emax at 100 g/ha: Spodoptera frugiperda, foliar, 168 h, SPODFR, 100 g of ai/ha, 7 dat, read-out: % efficacy; for efficacy: application rate 100 g/ha, after 7 days, caterpillars
Experimental: Spodoptera frugiperda—Spray Test [table] To produce a suitable active ingredient formulation, 1 part by weight of active ingredient is dissolved with the specified parts by weight of solvent and made up to the desired concentration with water containing an emulsifier concentration of 1000 ppm. To produce further test concentrations, the formulation is diluted with emulsifier-containing water. Leaf discs of maize (Zea mays) are sprayed with an active ingredient formulation of the desired concentration and, after drying, populated with caterpillars of the armyworm (Spodoptera frugiperda). After 7 days, the efficacy in % is determined. 100% means that all the caterpillars have been killed; 0% means that no caterpillar has been killed.

Lucilia cuprina = Lucilia cuprina test; conditions: after 2 days, L1 larvae
Experimental: Lucilia cuprina Test Solvent: dimethyl sulfoxide To produce a suitable active ingredient formulation, 10 mg of active ingredient are mixed with 0.5 ml of dimethyl sulfoxide, and the concentrate is diluted with water to the desired concentration. About 20 L1 larvae of the Australian sheep blowfly (Lucilia cuprina) are transferred into a test vessel containing minced horsemeat and the active ingredient formulation of the desired concentration. After 2 days, the kill in % is determined. 100% means that all the larvae have been killed; 0% means that no larvae have been killed.

Ctenocephalides felis = Ctenocephalides felis oral test; conditions: application rate 100 ppm, after 2 days
Experimental: Ctenocephalides felis—Oral Test Solvent: dimethyl sulfoxide To produce a suitable active ingredient formulation, 10 mg of active ingredient are mixed with 0.5 ml of dimethyl sulfoxide. Dilution with citrated cattle blood gives the desired concentration. About 20 unfed adult cat fleas (Ctenocephalides felis) are placed into a chamber which is closed at the top and bottom with gauze. A metal cylinder whose bottom end is closed with parafilm is placed onto the chamber. The cylinder contains the blood/active ingredient formulation, which can be imbibed by the fleas through the parafilm membrane. After 2 days, the kill in % is determined. 100% means that all of the fleas have been killed; 0% means that none of the fleas have been killed.

Myzus persicae [3] = assay: Myzus persicae spray test, bell pepper plants; conditions: application rate 20 ppm, after 6 days
Experimental: Myzus persicae—Spray Test Solvent: 14 parts by weight of dimethylformamide Emulsifier: alkylaryl polyglycol ether To produce a suitable active ingredient formulation, 1 part by weight of active ingredient is dissolved with the specified parts by weight of solvent and made up to the desired concentration with water containing an emulsifier concentration of 1000 ppm. To produce further test concentrations, the formulation is diluted with emulsifier-containing water. If the addition of ammonium salts or/and penetrants is required, these are each added in a concentration of 1000 ppm to the formulation solution. Bell pepper plants (Capsicum annuum) severely infested with the green peach aphid (Myzus persicae) are treated by spraying with the active ingredient formulation in the desired concentration. After 6 days, the kill in % is determined. 100% means that all of the aphids have been killed; 0% means that none of the aphids have been killed.

Row | SMILES | pest or weed control at 4 ppm (Myzus persicae [1]) | pest or weed control at 20 g/ha (Myzus persicae [2]) | also measured
1 | CCS(=O)(=O)c1ccc(-n2cc(Cl)cn2)nc1-c1nc2cc(C(F)(F)F)nc(C)c2n1C [Example I-004] | 100% | – | pest or weed control at 100 g/ha (Phaedon cochleariae): 100%
2 | CCS(=O)(=O)c1ccc(-n2cncn2)nc1-c1nc2cc(C(F)(F)F)nc(Cl)c2n1C [Example I-005] | 100% | 100% | pest or weed control at 100 g/ha (Myzus persicae [2]): 100%; Emax at 100 g/ha (Spodoptera frugiperda): 100%; efficacy (Spodoptera frugiperda): 100%
3 | CCS(=O)(=O)c1ccc(-n2ccnn2)nc1-c1nc2cc(C(F)(F)F)ncc2n1C [Prior art according to WO 2016/124563, reference compound] | – | – | Emax at 4 g/ha (Myzus persicae [2]; MYZUPE, 4 g of ai/ha, 5 dat, read-out: % efficacy): 0%
4 | CCS(=O)(=O)c1ccc(C(=O)NC)nc1-c1nc2cc(C(F)(F)F)nc(C)c2n1C [Example I-014] | 100% | 90% | –
5 | CCS(=O)(=O)c1ccc(NC(=O)NC)nc1-c1nc2cc(C(F)(F)F)nc(C)c2n1C [Example I-002] | 100% | 90% | –
6 | CCS(=O)(=O)c1ccc(NC(=O)NC)nc1-c1nc2cc(C(F)(F)F)nc(Cl)c2n1C [Example I-006] | 100% | 90% | pest or weed control at 100 g/ha (Myzus persicae [2]): 90%
7 | CCS(=O)(=O)c1ccc(-n2cc(Cl)cn2)nc1-c1nc2cc(C(F)(F)F)nc(C#N)c2n1C [Example I-009, 2-[6-(4-chloro-1H-pyrazol-1-yl)-3-(ethylsulfonyl)pyridin-2-yl]-3-methyl-6-(trifluoromethyl)-3H-imidazo[4,5-c]pyridine-4-carbonitrile] | 90% | – | efficacy (kill) (Lucilia cuprina; application rate 20 ppm): 100%; efficacy (kill) (Lucilia cuprina; application rate 100 ppm): 100%
8 | CCS(=O)(=O)c1ccc(-n2cncn2)nc1-c1nc2cc(C(F)(F)F)ncc2n1C [Prior art WO 2016/124563 (Ex. 32), reference compound] | – | – | Emax at 100 g/ha (Spodoptera frugiperda): 50%
9 | C=Cc1nc(C(F)(F)F)cc2nc(-c3nc(-n4ncn(-c5ccc(Cl)cc5)c4=O)ccc3S(=O)(=O)CC)n(C)c12 [Example I-017] | 100% | 90% | efficacy (Spodoptera frugiperda): 100%
10 | CCS(=O)(=O)c1ccc(N)nc1-c1nc2cc(C(F)(F)F)nc(C#N)c2n1C [Example I-007] | 100% | 90% | pest or weed control at 100 g/ha (Phaedon cochleariae): 100%
11 | CCS(=O)(=O)c1ccc(-n2cc(C#N)cn2)nc1-c1nc2cc(C(F)(F)F)nc(C)c2n1C [Example I-008] | 100% | – | efficacy (kill) (Ctenocephalides felis): 100%; efficacy (kill) (Lucilia cuprina; application rate 100 ppm): 100%; pest or weed control at 100 g/ha (Phaedon cochleariae): 100%
12 | CCS(=O)(=O)c1ccc(-n2cncn2)nc1-c1nc2cc(C(F)(F)F)nc(C#N)c2n1C [Example I-012] | 100% | – | pest or weed control at 100 g/ha (Phaedon cochleariae): 83%; efficacy (kill) (Myzus persicae [3]): 100%
13 | CCS(=O)(=O)c1ccc(C(=O)N(C)C)nc1-c1nc2cc(C(F)(F)F)nc(C)c2n1C [Example I-015] | 100% | 90% | pest or weed control at 100 g/ha (Myzus persicae [2]): 90%
14 | CCS(=O)(=O)c1ccc(NC(=O)NC)nc1-c1nc2cc(C(F)(F)F)nc(C#N)c2n1C [Example I-010] | 100% | – | efficacy (kill) (Ctenocephalides felis): 100%; efficacy (kill) (Myzus persicae [3]): 99%
